These results are taken from PubChem BioAssay AID248 (DTP/NCI, 2004).

Several values for one entry are separate records, joined by “and”; a condition that tells them apart may be missing. Equal values may be shown once. Inconclusive results and toxic doses are left out.

This experiment has as its system L1210 leukemia ip in BDF1 mice, survival T/C. Description: NCI In Vivo Anticancer Drug Screen. Data for tumor model L1210 Leukemia (intraperitoneal) in B6D2F1 (BDF1) mice. Conditions: endpoint: mean survival time, higher = longer survival. In short, it runs like this: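 Transplantable tumor model; survival measured in treated vs vehicle control mice. Value = treated/control.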

Where [1] appears, read: dose: 75.0 mg/kg/injection, schedule: Q01DX001 (ip), vehicle: other.
Setting [2] is: dose: 100.0 mg/kg/injection, schedule: Q04DX002 (ip), vehicle: saline with Tween-80.
Setting [3] is: dose: 200.0 mg/kg/injection, schedule: Q04DX002 (ip), vehicle: saline with Tween-80.
Where [4] appears, read: dose: 400.0 mg/kg/injection, schedule: Q04DX002 (ip), vehicle: saline with Tween-80.
Where [5] appears, read: dose: 100.0 mg/kg/injection, schedule: Q01DX001 (ip), vehicle: saline with Tween-80.
Setting [6] is: dose: 200.0 mg/kg/injection, schedule: Q01DX001 (ip), vehicle: saline with Tween-80.
Where [7] appears, read: dose: 200.0 mg/kg/injection, schedule: Q01DX009 (ip), vehicle: saline with Tween-80.
[8] abbreviates: dose: 400.0 mg/kg/injection, schedule: Q01DX001 (ip), vehicle: saline with Tween-80.
Where [9] appears, read: dose: 400.0 mg/kg/injection, schedule: Q01DX009 (ip), vehicle: saline with Tween-80.
The mark [10] stands for this setting: dose: 400.0 mg/kg/injection, schedule: Q04DX003 (ip), vehicle: saline with Tween-80.
Setting [11] is: dose: 100.0 mg/kg/injection, schedule: Q04DX003 (ip), vehicle: saline with Tween-80.
[12] abbreviates: dose: 200.0 mg/kg/injection, schedule: Q04DX003 (ip), vehicle: saline with Tween-80.
[13] abbreviates: dose: 100.0 mg/kg/injection, schedule: Q04DX003 (ip), vehicle: Klucel (hydroxypropylcellulose) (HPC).
[14] abbreviates: dose: 200.0 mg/kg/injection, schedule: Q04DX003 (ip), vehicle: Klucel (hydroxypropylcellulose) (HPC).
Where [15] appears, read: dose: 100.0 mg/kg/injection, schedule: Q01DX009 (ip), vehicle: Klucel (hydroxypropylcellulose) (HPC).
The mark [16] stands for this setting: dose: 200.0 mg/kg/injection, schedule: Q01DX009 (ip), vehicle: Klucel (hydroxypropylcellulose) (HPC).
[17] abbreviates: dose: 400.0 mg/kg/injection, schedule: Q01DX009 (ip), vehicle: Klucel (hydroxypropylcellulose) (HPC).

Take `CC(=O)[O][Hg][c]1c(N)c(Cl)cc(C)c1F`: the T/C (dose: 10.0 mg/kg/injection, schedule: Q01DX001 (ip), vehicle: Klucel (hydroxypropylcellulose) (HPC)) is 101 % of control and the T/C (dose: 20.0 mg/kg/injection, schedule: Q01DX001 (ip), vehicle: Klucel (hydroxypropylcellulose) (HPC)) is 86 % of control.
`CC1=CC(=O)C(c2ccc(O)cc2O)=CC1=O`: under setting [1], the T/C was 101 % of control.
For `Cc1ccc(CNC(=O)Cc2ccccc2)cc1C`, the T/C is, setting by setting: under setting [2], 100 % of control; under setting [3], 100 % of control; under setting [4], 110 % of control.
Consider `O=C(Nc1ccc(NC2=NCCN2)cc1)c1cccc(C(=O)Nc2ccc(NC3=NCCN3)cc2)c1`, for which the T/C is, setting by setting: (dose: 3.75 mg/kg/injection, schedule: Q01DX Z (ip), vehicle: methylcellulose (MC)) 100 % of control; (dose: 7.5 mg/kg/injection, schedule: Q01DX Z (ip), vehicle: methylcellulose (MC)) 104 % of control; (dose: 15.0 mg/kg/injection, schedule: Q01DX Z (ip), vehicle: methylcellulose (MC)) 116 % of control; (dose: 30.0 mg/kg/injection, schedule: Q01DX Z (ip), vehicle: methylcellulose (MC)) 161 % of control.
In the case of `O=CN(N=O)c1ccccc1`, the T/C under setting [1] is 104 % of control; the T/C (dose: 150.0 mg/kg/injection, schedule: Q01DX001 (ip), vehicle: other) is 97 % of control; the T/C (dose: 300.0 mg/kg/injection, schedule: Q01DX001 (ip), vehicle: other) is 96 % of control and 104 % of control.
For the compound `CC1(C)OC2COC(CN(N=O)C(N)=O)C2O1` (stereo not drawn), for the setting “dose: 75.0 mg/kg/injection, schedule: Q01DX001 (ip), vehicle: saline”, the T/C is 122 % of control.
For `O=C(NC(=S)Nc1cc(C(F)(F)F)ccc1Cl)c1ccccc1F`, the T/C reads like this: (dose: 12.5 mg/kg/injection, schedule: Q01DX009 (ip), vehicle: saline with Tween-80) 93 % of control and 97 % of control; under setting [5], 104 % of control; under setting [2], 97 % of control and 100 % of control; under setting [6], 102 % of control; under setting [7], 86 % of control; under setting [3], 93 % of control and 97 % of control. Also, the T/C reads like this: under setting [8], 102 % of control; under setting [9], 95 % of control; under setting [4], 100 % of control and 91 % of control; under setting [10], 87 % of control.
With `Cn1c2ccccc2[n+]2c(N)scc12`, the T/C is 101 % of control (dose: 12.5 mg/kg/injection, schedule: Q04DX002 (ip), vehicle: saline); 115 % of control (dose: 25.0 mg/kg/injection, schedule: Q04DX002 (ip), vehicle: saline); 96 % of control and 91 % of control (dose: 50.0 mg/kg/injection, schedule: Q04DX002 (ip), vehicle: saline); 102 % of control (dose: 100.0 mg/kg/injection, schedule: Q04DX002 (ip), vehicle: saline).
As to `CCOC(=O)c1ccc(NC(=O)c2ccc(Cl)c(Cl)c2)cc1`, the T/C under setting [5] is 112 % of control; the T/C (dose: 100.0 mg/kg/injection, schedule: Q01DX009 (ip), vehicle: saline with Tween-80) was 97 % of control; the T/C under setting [2] is 97 % of control and 91 % of control; the T/C under setting [11] was 104 % of control; the T/C under setting [6] is 115 % of control; the T/C under setting [7] was 93 % of control and 101 % of control. Also, the T/C is 93 % of control and 87 % of control under setting [3]; 108 % of control under setting [12]; 93 % of control under setting [8]; 103 % of control and 114 % of control under setting [9]; 93 % of control and 92 % of control under setting [4]; 97 % of control under setting [10].
`COc1cc(Oc2c(OC)cc(N)cc2OC)cc(OC)c1OC`: the T/C under setting [11] was 97 % of control, the T/C under setting [12] was 95 % of control and the T/C under setting [10] was 95 % of control.
`O=C1OC(=O)C2C3C=CC(CC3)C12` (stereo not drawn): the T/C runs as follows: under setting [13], 96 % of control; (dose: 100.0 mg/kg/injection, schedule: Q04DX003 (ip), vehicle: saline) 98 % of control; under setting [14], 100 % of control; (dose: 200.0 mg/kg/injection, schedule: Q04DX003 (ip), vehicle: saline) 98 % of control.
Regarding `COC1CCC2(C)C3CCC4C(=CCC5C(C)(C)C(=O)CCC45C)CC3(C)CCC2C1(C)C` (stereo not drawn), the T/C was 105 % of control (dose: 75.0 mg/kg/injection, schedule: Q01DX001 (ip), vehicle: carboxymethylcellulose (CMC)); 110 % of control (dose: 150.0 mg/kg/injection, schedule: Q01DX001 (ip), vehicle: carboxymethylcellulose (CMC)); 104 % of control (dose: 300.0 mg/kg/injection, schedule: Q01DX001 (ip), vehicle: carboxymethylcellulose (CMC)).
`O=Cc1ccc(OCCBr)cc1`: the T/C is, setting by setting: under setting [11], 98 % of control; under setting [12], 97 % of control; under setting [10], 103 % of control.
For the compound `Cc1cc(=O)oc2c(OS(C)(=O)=O)c(OS(C)(=O)=O)ccc12`, the T/C is, setting by setting: (dose: 6.25 mg/kg/injection, schedule: Q01DX009 (ip), vehicle: Klucel (hydroxypropylcellulose) (HPC)) 100 % of control; (dose: 12.5 mg/kg/injection, schedule: Q01DX009 (ip), vehicle: Klucel (hydroxypropylcellulose) (HPC)) 100 % of control; (dose: 25.0 mg/kg/injection, schedule: Q01DX009 (ip), vehicle: Klucel (hydroxypropylcellulose) (HPC)) 96 % of control and 100 % of control; (dose: 50.0 mg/kg/injection, schedule: Q01DX009 (ip), vehicle: Klucel (hydroxypropylcellulose) (HPC)) 94 % of control and 88 % of control; under setting [15], 97 % of control; under setting [16], 105 % of control.
For the compound `CC12CCC3C(CC4OC45CC(O)CCC35C)C1CCC21CO1` (stereo not drawn), the T/C is 98 % of control (dose: 50.0 mg/kg/injection, schedule: Q01DX001 (sc), vehicle: steriod suspending solution); 104 % of control (dose: 100.0 mg/kg/injection, schedule: Q01DX001 (sc), vehicle: steriod suspending solution); 95 % of control (dose: 200.0 mg/kg/injection, schedule: Q01DX001 (sc), vehicle: steriod suspending solution); 101 % of control (dose: 400.0 mg/kg/injection, schedule: Q01DX001 (sc), vehicle: steriod suspending solution).
`CONS(=O)c1ccc([N+](=O)[O-])cc1` (stereo not drawn): the T/C reads like this: under setting [15], 98 % of control; under setting [16], 96 % of control; under setting [17], 100 % of control.
With `O=C(O)c1ccccc1C(=O)NCc1ccco1`, the T/C is 94 % of control (dose: 50.0 mg/kg/injection, schedule: Q01DX001 (ip), vehicle: other); 105 % of control (dose: 100.0 mg/kg/injection, schedule: Q01DX001 (ip), vehicle: other); 105 % of control (dose: 200.0 mg/kg/injection, schedule: Q01DX001 (ip), vehicle: other); 100 % of control (dose: 400.0 mg/kg/injection, schedule: Q01DX001 (ip), vehicle: other).
Turning to `CCC(=O)Nc1cc(Cl)ccc1C`, the T/C under setting [15] is 98 % of control; the T/C under setting [13] was 102 % of control; the T/C under setting [16] is 98 % of control; the T/C under setting [14] was 102 % of control; the T/C under setting [17] is 95 % of control; the T/C (dose: 400.0 mg/kg/injection, schedule: Q04DX003 (ip), vehicle: Klucel (hydroxypropylcellulose) (HPC)) was 102 % of control.
As for `C=CCSc1ccc(Cl)cc1`, the T/C runs as follows: (dose: 100.0 mg/kg/injection, schedule: Q01DX001 (ip), vehicle: saline) 105 % of control; (dose: 200.0 mg/kg/injection, schedule: Q01DX001 (ip), vehicle: saline) 103 % of control.
